This note sets out measurements from patent US9399663B2, “Competitive inhibitor of GP120” (priority 2014, dated 2016).

One experiment addresses gp120IIIB (Human immunodeficiency virus type 1 group M subtype B, UniProt P04578). The settings on record: dot blot, 2 μg peptide spotted, 5 μg gp120IIIB. Here is the method:
Dot blot analysis: CTTs or Helix-A and -B peptides (2 μg each) were spotted on a nitrocellulose membrane and allowed to dry. The membrane was then incubated in blocking buffer (5% BSA in TBST [[…] NaCl, 20 mM Tris-base, pH 7.5, 0.05% TWEEN® 20]) for 2 hours followed by incubation with a solution composed of 5 μg recombinant gp120 (for binding to CTTs) or 5 μg recombinant TUBB3 (for Helix-A and -B) in 20 mL of TBST for 2 hours. The membranes were washed and then incubated with a mouse anti-gp120 antibody (1:1000; Immunodiagnostics, Inc.) or mouse anti-TUBB3 antibody (1:5000; Covance, N.J.) in TBST for 2 hours. Membranes were washed and incubated in goat anti-mouse HP-conjugated secondary antibody (1:20,000; Jackson ImmunoResearch Laboratories, Inc., PA). Visualization of the bands was then accomplished by the addition of PIERCE® SUPERSIGNAL™ West Pico-Stable Peroxidase Solution and Luminol/Enhancer Solution (Pierce Biotechnology, Inc., Rockford, Ill.).
Several CTTs (see Table 1) synthesized by […]® were used. Peptides (2 μg each) were spotted on a nitrocellulose membrane and incubated with a solution composed of 5 μg of gp120IIIB (Immunodiagnostics) in 20 mL of TBS-TWEEN® 2 hours at RT, followed by incubation with a specific primary antibody (Immunodiagnostics, +4° C., ON). Following incubation with a corresponding HRP-conjugated secondary antibody 1 hour at RT, the immunocomplexes were visualized with chemiluminescence.

Experiment [1] relates to gp120 binding to microtubules. Put plainly: SPR competition: gp120 premixed with Helix peptide injected over microtubules. The settings on record: 60 sec injection. Further details: species or system Porcine. The text has this:
(§1) BIACORE® T200™ was used to determine the kinetic parameters for the binding of recombinant TUBB3, tubulin dimer, and assembled MTs to gp120s in the absence and presence of Helix-A peptide. […] Representative data are from one of three independent experiments.
(§2) Surface plasmon resonance (SPR). BIACORE® T200™ was used to determine the kinetic parameters for the binding of recombinant TUBB3, tubulin dimer, and assembled microtubules (ligands) to the various isoforms of gp120 or related peptides (analytes). Recombinant TUBB3, tubulin dimer, and assembled MTs were covalently attached to different flow cells of a carboxymethyldextran (CM5) sensor chip by amine coupling. The chip surface was activated for 720 sec at 10 μL/min with of 1:1 mixture of 0.1 M N-Hydroxysuccinimide (NHS) and 0.5 M 1-Ethyl-3-(-3-dimethylaminopropyl)-carbodiimide hydrochloride (EDC). […] After ligand capture, the surfaces were deactivated by injecting 1 M ethanolamine for 720 sec at 10 μL/min. HBS-P (10 mM HEPES, pH7.4, 150 mM NaCl, 0.05% P-20) with 2 mM MgCl2 used as the running buffer. Flow cell 1 on each chip was left empty and used for reference surface. TUBB3 (1040 RU), tubulin dimer (2086 RU), and assembled MTs (990 RU) were captured on the remaining 3 flow cells. […] Data was analyzed with BIACORE® T200™ Evaluation Software (version 1) to determine the equilibrium dissociation constant (KD) from a 1:1 binding model. […]

Experiment [2] deals with gp120 binding to tubulin dimer. Description: SPR competition: gp120 premixed with Helix peptide injected over tubulin dimer. Further details: species or system Porcine. The following applies: 60 sec injection. Here is the method:
BIACORE® T200™ was used to determine the kinetic parameters for the binding of recombinant TUBB3, tubulin dimer, and assembled MTs to gp120s in the absence and presence of Helix-A peptide. Gp120s (100 nM) were injected over the surface alone or as a premix with Helix-A peptides (10 μM). Representative data are from one of three independent experiments.
as §2, with “surface.” for “surface. TUBB3 (1040 RU), tubulin dimer (2086 RU), and assembled MTs (990 RU) were captured on the remaining 3 flow cells.”

A further experiment relates to tubulin dimer. Put plainly: SPR (BIACORE T200) binding to immobilized tubulin dimer. Further details: species or system Porcine. The following applies: 1 uM peptide alone; 60 sec injection. Here is the method:
(§3) Surface plasmon resonance (SPR). BIACORE® T200™ was used to determine the kinetic parameters for the binding of recombinant TUBB3, tubulin dimer, and assembled microtubules (ligands) to the various isoforms of gp120 or related peptides (analytes). Recombinant TUBB3, tubulin dimer, and assembled MTs were covalently attached to different flow cells of a carboxymethyldextran (CM5) sensor chip by amine coupling. The chip surface was activated for 720 sec at 10 μL/min with of 1:1 mixture of 0.1 M N-Hydroxysuccinimide (NHS) and 0.5 M 1-Ethyl-3-(-3-dimethylaminopropyl)-carbodiimide hydrochloride (EDC). […] After ligand capture, the surfaces were deactivated by injecting 1 M ethanolamine for 720 sec at 10 μL/min. HBS-P (10 mM HEPES, pH7.4, 150 mM NaCl, 0.05% P-20) with 2 mM MgCl2 used as the running buffer. Flow cell 1 on each chip was left empty and used for reference surface. […] Kinetic studies were performed by injecting different concentrations of the analytes in triplicate. The chip surface was regenerated by with 10 mM glycine pH 1.5 injected for 30 sec at a flow rate of 100 μL/min. Each sample was injected for 60 sec (contact time) followed by a dissociation time of 300 sec at a flow rate of 100 μL/min. Data was analyzed with BIACORE® T200™ Evaluation Software (version 1) to determine the equilibrium dissociation constant (KD) from a 1:1 binding model. Binding studies with peptides Helix A and Helix B were done in the same way as described above. Kinetic studies were performed by injecting different concentrations (20 μM, 10 μM, 5 μM, 2.5 μM, 1.25 μM and 0.625 μM) of Helix A and Helix B. Competition experiments with Helix A and Helix B were performed by mixing 100 nM gp120 isoforms with 10 μM of each peptide and injecting over the sensorchip surface.
Recombinant TUBB3, tubulin dimer, and assembled MTs from bovine brains were immobilized on a BIACORE® CM5 chip by amine coupling. Different concentrations of gp120s (from 3.13 to 100 nM) were injected over the surface in triplicates in each experiment. The kinetics of interaction was analyzed using a BIACORE® T200™ instrument. […]
(In general: SPR reads the build-up and loss of mass on a sensor chip optically.)

Another experiment has as its system assembled MTs. Description: SPR (BIACORE T200) binding to immobilized assembled microtubules. Further details: species or system Porcine. The settings on record: 1 uM peptide alone; 60 sec injection. Here is the method:
Surface plasmon resonance (SPR). BIACORE® T200™ was used to determine the kinetic parameters for the binding of recombinant TUBB3, tubulin dimer, and assembled microtubules (ligands) to the various isoforms of gp120 or related peptides (analytes). Recombinant TUBB3, tubulin dimer, and assembled MTs were covalently attached to different flow cells of a carboxymethyldextran (CM5) sensor chip by amine coupling. The chip surface was activated for 720 sec at 10 μL/min with of 1:1 mixture of 0.1 M N-Hydroxysuccinimide (NHS) and 0.5 M 1-Ethyl-3-(-3-dimethylaminopropyl)-carbodiimide hydrochloride (EDC). […] After ligand capture, the surfaces were deactivated by injecting 1 M ethanolamine for 720 sec at 10 μL/min. HBS-P (10 mM HEPES, pH7.4, 150 mM NaCl, 0.05% P-20) with 2 mM MgCl2 used as the running buffer. Flow cell 1 on each chip was left empty and used for reference surface. TUBB3 (1040 RU), tubulin dimer (2086 RU), and assembled MTs (990 RU) were captured on the remaining 3 flow cells. Kinetic studies were performed by injecting different concentrations of the analytes in triplicate. The chip surface was regenerated by with 10 mM glycine pH 1.5 injected for 30 sec at a flow rate of 100 μL/min. Each sample was injected for 60 sec (contact time) followed by a dissociation time of 300 sec at a flow rate of 100 μL/min. Data was analyzed with BIACORE® T200™ Evaluation Software (version 1) to determine the equilibrium dissociation constant (KD) from a 1:1 binding model. Binding studies with peptides Helix A and Helix B were done in the same way as described above. Kinetic studies were performed by injecting different concentrations (20 μM, 10 μM, 5 μM, 2.5 μM, 1.25 μM and 0.625 μM) of Helix A and Helix B. Competition experiments with Helix A and Helix B were performed by mixing 100 nM gp120 isoforms with 10 μM of each peptide and injecting over the sensorchip surface.
Recombinant TUBB3, tubulin dimer, and assembled MTs from bovine brains were immobilized on a BIACORE® CM5 chip by amine coupling. […] The kinetics of interaction was analyzed using a BIACORE® T200™ instrument. […]

For the next experiment, the target named is T1, recombinant TUBB3 (Homo sapiens, UniProt Q13509).
T1 construct: purchased MyBioSource, San Diego, Calif
Description: SPR (BIACORE T200) binding to immobilized TUBB3. The following applies: for SPR response (2-1) RU, Fc2: Tubulin β-3 1092 RU: 60 sec injection; for pKd: Ligand: TUBB3. Here is the method: as §3
Recombinant TUBB3, tubulin dimer, and assembled MTs from bovine brains were immobilized on a BIACORE® CM5 chip by amine coupling. Different concentrations of gp120s (from 3.13 to 100 nM) were injected over the surface in triplicates in each experiment. The kinetics of interaction was analyzed using a BIACORE® T200™ instrument. BiaEvaluation software was used to calculate binding affinities based on 1:1 binding model.

The target in experiment [3] is T2, gp120 binding to Tubulin β-3 (Homo sapiens, UniProt Q13509).
T2 construct: purchased MyBioSource (TUBB3); Immunodiagnostics Inc, Woburn, Mass; (gp120s)
Description: SPR competition: gp120 premixed with Helix peptide injected over TUBB3. The settings on record: 60 sec injection.
Description: as §1, §2

[4] abbreviates: 100 nM GP120IIIB + 1 uM peptide.
Where [5] appears, read: 100 nM GP120IIIB + 10 uM peptide.

pKd: −log10 of the molar value. Values joined by “and” are separate entries in the source; they are usually repeats but may differ in a detail not shown here. Equal entries are not always repeated. Where two headings read alike, the source gives them in different places.

T1 sequence (Q13509 whole entry): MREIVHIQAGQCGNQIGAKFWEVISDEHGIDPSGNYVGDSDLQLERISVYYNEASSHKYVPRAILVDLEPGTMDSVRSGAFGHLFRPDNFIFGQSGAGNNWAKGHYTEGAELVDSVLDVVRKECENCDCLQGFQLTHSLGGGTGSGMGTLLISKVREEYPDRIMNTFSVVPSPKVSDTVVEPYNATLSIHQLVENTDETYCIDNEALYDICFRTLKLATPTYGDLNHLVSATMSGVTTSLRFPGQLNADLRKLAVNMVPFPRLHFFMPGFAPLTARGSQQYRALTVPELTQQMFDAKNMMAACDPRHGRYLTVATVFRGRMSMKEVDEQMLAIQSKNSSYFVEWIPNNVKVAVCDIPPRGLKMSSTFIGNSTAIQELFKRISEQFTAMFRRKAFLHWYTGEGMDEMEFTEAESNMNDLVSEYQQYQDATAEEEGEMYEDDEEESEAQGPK
T2 sequence (Q13509 whole entry): as above

Take EDDEEESEA [SEQ ID NO: 13]: the “Binding to gp120” value on gp120IIIB (listed as tubulin β-3 (TUBB3)) is “potential binding partners”.

Turning to EGEGEEEGE [SEQ ID NO: 5], the “Binding to gp120” value was “YES” on gp120IIIB and “potential binding partners” on gp120IIIB (listed as tubulin-α1A/1B Δ2).

“RAKWNNTLKQIASK (listed as Homo sapiens) [Helix B]”: the “SPR response (4-1) RU, Fc4: Microtubules 970 RU” value was 16.5 RU in experiment [1] (setting [4]); 19 RU and 20 RU in experiment [1] (setting [5]); “N/B” in the experiment on assembled MTs. In addition, the “SPR response (3-1) RU, Fc3: Tubulin Dimer 1900 RU” value in experiment [2] (setting [4]) was 18.5 RU; in experiment [2] (setting [5]), 20 RU and 18 RU; with tubulin dimer, 0.4 RU and 0.5 RU. In addition, the “SPR response (2-1) RU, Fc2: Tubulin β-3 1092 RU” value with recombinant TUBB3 (10 uM peptide alone) is 1.1 RU and 1.2 RU; in experiment [3] (setting [4]), 33 RU; in experiment [3] (setting [5]), 34 RU and 32 RU.

The pKd is the Kd on a negative log10 scale, so that one unit is a factor of ten. For “gp120MN: HIV envelope protein gp120, strain MN, purchased from Immunodiagnostics”, the “SPR response (2-1) RU, Fc2: Tubulin β-3 1092 RU” value with recombinant TUBB3 (100 nM gp120 alone) was 9 RU and 8.8 RU. For the same substance, the pKd was 6.13 with recombinant TUBB3 (mean of two independent experiments, read-out: Mean KD); 6.24 and 6.05 with recombinant TUBB3 (single experiment, gp120 3.13 to 100 nM, 1:1 binding model, read-out: KD).
